From patent US20240307382A1, “MODULATORS OF THE INTEGRATED STRESS PATHWAY” (Calico Life Sciences LLC, priority 2017, published 2024)

test system: HEK293T cells carrying the ATF4 luciferase reporter; experiment: ATF4-Luc assay (ATF4 luciferase reporter, tunicamycin-treated cells); format: cell-based; details: Homo sapiens, HEK-293T, 1 μg/mL tunicamycin, 7 hours
Experimental: In order to test exemplary compounds of the invention in a cellular context, a stable VWMD cell line was first constructed. The ATF4 reporter was prepared by fusing the human full-length ATF4 5′-UTR (NCBI Accession No. BC022088.2) in front of the firefly luciferase (FLuc) coding sequence lacking the initiator methionine as described in Sidrauski et al (eLife 2013). The construct was used to produce recombinant retroviruses using standard methods and the resulting viral supermatant was used to transduce ITEK293T cells, which were then subsequently selected with puromycin to generate a stable cell line.
HTEK293T cells carrying the ATF4 luciferase reporter were plated on polylysine coated 384-well plates (Greiner Bio-one) at 30,000 cells per well. Cells were treated the next day with 1 μg/mL tunicamycin and 200 nM of a compound of Formula (I) for 7 hours. Luminescence was measured using One Glo (Promega) as specified by the manufacturer. Cells were maintained in DMEM with L-glutamine supplemented with 10% heat-inactivated FBS (Gibco) and Antibiotic-Antimycotic solution (Gibco).
Table 2 below summarizes the EC50 data obtained using the ATF4-Luc assay for exemplary compounds of the invention.

Going from `CN(C)Cc1ccnc(C(=O)NC23CCC(NC(=O)COc4ccc(Cl)c(F)c4)(CC2)CC3)c1` [Compound 974, N-{4-[2-(4-chloro-3-fluorophenoxy)acetamido]bicyclo[2.2.2]octan-1-yl}-4-[(dimethylamino)methyl]pyridine-2-carboxamide] to `NCc1ccnc(C(=O)NC23CCC(NC(=O)COc4ccc(Cl)c(F)c4)(CC2)CC3)c1` [Compound 975, 4-(aminomethyl)-N-{4-[2-(4-chloro-3-fluorophenoxy)acetamido]bicyclo[2.2.2]octan-1-yl}pyridine-2-carboxamide], the EC50 falls from over 2000 nM to under 50 nM.

First: O=C(COc1ccc(Cl)c(F)c1)NC12CCC(NC(=O)c3cc4cccn4cn3)(CC1)C[C@@H]2O [Compound 976, N-{(3S)-4-[2-(4-chloro-3-fluorophenoxy)acetamido]-3-hydroxybicyclo[2.2.2]octan-1-yl}pyrrolo[1,2-c]pyrimidine-3-carboxamide]
Second: O=C(COc1ccc(Cl)c(F)c1)NC12CCC(NC(=O)c3ccc4cc(F)ccc4n3)(CC1)C[C@@H]2O [Compound 998, N-{(3S)-4-[2-(4-chloro-3-fluorophenoxy)acetamido]-3-hydroxybicyclo[2.2.2]octan-1-yl}-6-fluoroquinoline-2-carboxamide]
The EC50 of the first is higher: 50 to 250 nM for the first, under 50 nM for the second.

First: O=C(COc1ccc(Cl)c(F)c1)NC12CCC(NC(=O)c3ccnc(CO)c3)(CC1)CC2 [Compound 977, N-{4-[2-(4-chloro-3-fluorophenoxy)acetamido]bicyclo[2.2.2]octan-1-yl}-2-(hydroxymethyl)pyridine-4-carboxamide]
Second: O=C(COc1ccc(Cl)c(F)c1)NC12CCC(NC(=O)c3cc(CO)ccn3)(CC1)CC2 [Compound 995, N-{4-[2-(4-chloro-3-fluorophenoxy)acetamido]bicyclo[2.2.2]octan-1-yl}-4-(hydroxymethyl)pyridine-2-carboxamide]
The EC50 of the first is higher: over 2000 nM for the first, under 50 nM for the second. The second is the more potent here.

Compared with `CC(C)(C)OC(=O)NCc1ccnc(C(=O)NC23CCC(NC(=O)COc4ccc(Cl)c(F)c4)(CC2)CC3)c1` [Compound 978, tert-butyl {[2-({4-[2-(4-chloro-3-fluorophenoxy)acetamido]bicyclo[2.2.2]octan-1-yl}carbamoyl)pyridin-4-yl]methyl}carbamate], `O=C(COc1ccc(Cl)c(Cl)c1)NC12CCC(NC(=O)c3cc(CO)ccn3)(CC1)CC2` [Compound 991, N-{4-[2-(3,4-dichlorophenoxy)acetamido]bicyclo[2.2.2]octan-1-yl}-4-(hydroxymethyl)pyridine-2-carboxamide] is lower in EC50: over 2000 nM for the first, under 50 nM for the second. The second is the more potent here.

Compared with `CCc1cnc(C(=O)NC23CCC(NC(=O)COc4ccc(Cl)c(F)c4)(CC2)CC3)cn1` [Compound 979, N-{4-[2-(4-chloro-3-fluorophenoxy)acetamido]bicyclo[2.2.2]octan-1-yl}-5-ethylpyrazine-2-carboxamide], `O=C(COc1ccc(Cl)c(F)c1)NC12CCC(NC(=O)c3ccc(OC(F)(F)F)cn3)(CC1)CC2` [Compound 997, N-{4-[2-(4-chloro-3-fluorophenoxy)acetamido]bicyclo[2.2.2]octan-1-yl}-5-(trifluoromethoxy)pyridine-2-carboxamide] is lower in EC50: over 2000 nM for the first, 50 to 250 nM for the second.

First: O=C(COc1ccc(Cl)c(Cl)c1)NC12CCC(NC(=O)c3ccc(C(F)F)cn3)(CC1)CC2 [Compound 980, N-{4-[2-(3,4-dichlorophenoxy)acetamido]bicyclo[2.2.2]octan-1-yl}-5-(difluoromethyl)pyridine-2-carboxamide]
Second: O=C(COc1ccc(Cl)c(Cl)c1)NC12CCC(NC(=O)c3ccc(C(F)F)cn3)(CC1)C[C@@H]2O [Compound 990, N-{(3S)-4-[2-(3,4-dichlorophenoxy)acetamido]-3-hydroxybicyclo[2.2.2]octan-1-yl}-5-(difluoromethyl)pyridine-2-carboxamide]
The EC50 of the first is higher: 50 to 250 nM for the first, under 50 nM for the second. The second is the more potent here.

`O=C(COc1ccc(Cl)c(F)c1)NC12CCC(NC(=O)c3cccc(CO)c3)(CC1)CC2` [Compound 981, N-{4-[2-(4-chloro-3-fluorophenoxy)acetamido]bicyclo[2.2.2]octan-1-yl}-3-(hydroxymethyl)benzamide] and `O=C(COc1ccc(Cl)c(F)c1)NC12CCC(NC(=O)c3cccc(O)c3)(CC1)CC2` [Compound 982, N-{4-[2-(4-chloro-3-fluorophenoxy)acetamido]bicyclo[2.2.2]octan-1-yl}-3-hydroxybenzamide] fall in the same range of EC50: 250 to 1000 nM for the first, 250 to 1000 nM for the second.

`O=C(COc1ccc(Cl)c(F)c1)NC12CCC(NC(=O)c3cc(C(F)F)no3)(CC1)CC2` [Compound 983, N-{4-[2-(4-chloro-3-fluorophenoxy)acetamido]bicyclo[2.2.2]octan-1-yl}-3-(difluoromethyl)-1,2-oxazole-5-carboxamide] and `O=C(COc1ccc(Cl)c(F)c1)NC12CCC(NC(=O)c3cnc(C4CC4)o3)(CC1)CC2` [Compound 989, N-{4-[2-(4-chloro-3-fluorophenoxy)acetamido]bicyclo[2.2.2]octan-1-yl}-2-cyclopropyl-1,3-oxazole-5-carboxamide] fall in the same range of EC50: 250 to 1000 nM for the first, 250 to 1000 nM for the second.

`O=C(COc1ccc(Cl)c(F)c1)NC12CCC(NC(=O)c3ccc4c(c3)OC(F)(F)O4)(CC1)C[C@@H]2O` [Compound 984, N-{(3S)-4-[2-(4-chloro-3-fluorophenoxy)acetamido]-3-hydroxybicyclo[2.2.2]octan-1-yl}-2,2-difluoro-2H-1,3-benzodioxole-5-carboxamide] and `O=C(COc1ccc(Cl)c(Cl)c1)NC12CCC(NC(=O)c3ccc4c(c3)OC(F)(F)O4)(CC1)C[C@@H]2O` [Compound 985, N-{(3S)-4-[2-(3,4-dichlorophenoxy)acetamido]-3-hydroxybicyclo[2.2.2]octan-1-yl}-2,2-difluoro-2H-1,3-benzodioxole-5-carboxamide] cannot be ordered by EC50: under 50 nM for the first, under 50 nM for the second.

First: O=C(COc1ccc(Cl)c(F)c1)NC12CCC(NC(=O)c3cnc(C(F)F)cn3)(CC1)C[C@@H]2O [Compound 986, N-{(3S)-4-[2-(4-chloro-3-fluorophenoxy)acetamido]-3-hydroxybicyclo[2.2.2]octan-1-yl}-5-(difluoromethyl)pyrazine-2-carboxamide]
Second: O=C(COc1ccc(Cl)c(F)c1)NC12CCC(NC(=O)c3ccc(C(F)F)nc3)(CC1)C[C@@H]2O [Compound 988, N-{(3S)-4-[2-(4-chloro-3-fluorophenoxy)acetamido]-3-hydroxybicyclo[2.2.2]octan-1-yl}-6-(difluoromethyl)pyridine-3-carboxamide]
The EC50 of the first is lower: under 50 nM for the first, 50 to 250 nM for the second. The first is the more potent here.

`O=C(COc1ccc(Cl)c(Cl)c1)NC12CCC(NC(=O)c3ccc(C(F)F)nc3)(CC1)C[C@@H]2O` [Compound 987, N-{(3S)-4-[2-(3,4-dichlorophenoxy)acetamido]-3-hydroxybicyclo[2.2.2]octan-1-yl}-6-(difluoromethyl)pyridine-3-carboxamide] and `O=C(COc1ccc(Cl)c(Cl)c1)NC12CCC(NC(=O)c3ccc(OC(F)(F)F)nc3)(CC1)C[C@@H]2O` [Compound 1001, N-{(3S)-4-[2-(3,4-dichlorophenoxy)acetamido]-3-hydroxybicyclo[2.2.2]octan-1-yl}-6-(trifluoromethoxy)pyridine-3-carboxamide] cannot be ordered by EC50: under 50 nM for the first, under 50 nM for the second.

First: COCc1cncc(C(=O)NC23CCC(NC(=O)COc4ccc(Cl)c(Cl)c4)(CC2)CC3)c1 [Compound 992, N-{4-[2-(3,4-dichlorophenoxy)acetamido]bicyclo[2.2.2]octan-1-yl}-5-(methoxymethyl)pyridine-3-carboxamide]
Second: O=C(COc1ccc(Cl)c(Cl)c1)NC12CCC(NC(=O)c3cccnc3)(CC1)CC2 [Compound 994, N-{4-[2-(3,4-dichlorophenoxy)acetamido]bicyclo[2.2.2]octan-1-yl}pyridine-3-carboxamide]
The EC50 of the first is lower: 50 to 250 nM for the first, 250 to 1000 nM for the second.

Compared with `O=C(COc1ccc(Cl)c(Cl)c1)NC12CCC(NC(=O)c3ccccn3)(CC1)CC2` [Compound 993, N-{4-[2-(3,4-dichlorophenoxy)acetamido]bicyclo[2.2.2]octan-1-yl}pyridine-2-carboxamide], `O=C(COc1ccc(Cl)c(Cl)c1)NC12CCC(NC(=O)c3cc(CO)ccn3)(CC1)C[C@@H]2O` [Compound 1003, N-{(3S)-4-[2-(3,4-dichlorophenoxy)acetamido]-3-hydroxybicyclo[2.2.2]octan-1-yl}-4-(hydroxymethyl)pyridine-2-carboxamide] is lower in EC50: 50 to 250 nM for the first, under 50 nM for the second. The second is the more potent here.

Compared with `O=C(COc1ccc(Cl)c(F)c1)NC12CCC(NC(=O)c3ccc(OC(F)(F)F)nc3)(CC1)CC2` [Compound 996, N-{4-[2-(4-chloro-3-fluorophenoxy)acetamido]bicyclo[2.2.2]octan-1-yl}-6-(trifluoromethoxy)pyridine-3-carboxamide], `O=C(COc1ccc(Cl)c(Cl)c1)NC12CCC(NC(=O)c3ccc(C(F)(F)F)o3)(CC1)C[C@@H]2O` [Compound 1000, N-{(3S)-4-[2-(3,4-dichlorophenoxy)acetamido]-3-hydroxybicyclo[2.2.2]octan-1-yl}-5-(trifluoromethyl)furan-2-carboxamide] is lower in EC50: over 2000 nM for the first, under 50 nM for the second.

`O=C(COc1ccc(Cl)c(Cl)c1)NC12CCC(NC(=O)c3ccc4cc(F)ccc4n3)(CC1)C[C@@H]2O` [Compound 999, N-{(3S)-4-[2-(3,4-dichlorophenoxy)acetamido]-3-hydroxybicyclo[2.2.2]octan-1-yl}-6-fluoroquinoline-2-carboxamide] and `Cc1cc(C(=O)NC23CCC(NC(=O)COc4ccc(Cl)c(Cl)c4)(CC2)[C@@H](O)C3)sn1` [Compound 1002, N-{(3S)-4-[2-(3,4-dichlorophenoxy)acetamido]-3-hydroxybicyclo[2.2.2]octan-1-yl}-3-methyl-1,2-thiazole-5-carboxamide] cannot be ordered by EC50: under 50 nM for the first, under 50 nM for the second.
